Results on 3 molecules are retold here after patent US20250101023A1, “HETEROARYL DERIVATIVE AND USES THEREOF” (IUCF-HYU (INDUSTRY-UNIVERSITY COOPERATION FOUNDATION …, priority 2022, published 2025).

Where two headings read alike, the source gives them in different places.

For data set [1], the system named is HCC1954 cells. Kind of data set: Breast cancer growth inhibitory activity (Cell-titer Glo, 72 h). Type of data set: cell-based. As to conditions: Homo sapiens. The protocol:
(§1) Breast cancer cells in a culture solution (100 μL volume/well, 2,500 SK-Br3 cells/well, 1,000 HCC-1954 cells/well) were seeded into a tissue culture-treated 96-well plate and cultured in a cell incubator for 24 hours. […] Cell-titer Glo™ reagent (50 μL of a 5-fold diluted solution, Promega) was added to each well, and luminescence signals were measured using an Envision™ plate reader (PerkinElmer, USA). Titration curve fitting and IC50 values were generated using Prism 7.0 s/w (GraphPad, San Diego, USA).

Data set [2] has as its system SK-Br3 cells. Described as above. Conditions: Homo sapiens, SK-BR-3. Type of data set: cell-based. The protocol: as §1
A short description of data set [3]: Body weight in SK-Br3 xenograft model. Conditions: 20 mg/kg, i.p. twice a week. Type of data set: in vivo, mouse. As to the method: A mouse efficacy experiment was conducted after obtaining approval from the Laboratory Animal Ethics Committee of GenNBio (Review No.: GN-IACUC-Research 22-02-07). SK-Br3 and HCC-1954 cells (1×10^6 cells each) mixed with Matrigel (BD Biosciences) were […] injected into 5-week-old female Balb/c nude mice (Orient Bio, Seongnam, Republic of Korea). After tumors reached a size of about 100 mm^3, the compound, trastuzumab (20 mg/kg), and the like were intraperitoneally injected into mice (n=8 per group)(vehicle: 8% DMSO, 4% Tween-80, 88% PBS). The tumor size was measured twice weekly for about 4 weeks and calculated as follows. Volume (mm^3)=(a×b^2)/2; “a”, maximum diameter; “b”, vertical diameter

Data set [4] deals with CDK12/CyclinK (Homo sapiens (Human), UniProt Q9NYV4). Nature of the data set: CDK12/cyclinK enzyme activity. Conditions: in vitro. Type of data set: biochemical.
Data set [5] can be described thus: Liver microsomal metabolic stability. As to conditions: for Liver microsomal metabolic stability (% remaining amount) Dog: dog liver microsomes; for Liver microsomal metabolic stability (% remaining amount) Human: human liver microsomes; for Liver microsomal metabolic stability (% remaining amount) Mouse: mouse liver microsomes. Type of data set: in vitro ADME. As to the method:
(§2) 5 derivatives were evaluated for in vitro metabolic stability in liver microsomes from three different species (human, dog, mouse) and for inhibitory activity against 5 representative cytochrome P450 enzymes (CYPs)(Table 3). In terms of liver microsomal stability, the 2′-pyridyl group is more suitable than the α-methyl-4′-pyridyl group as the terminal aromatic group at position 6, and the aminopyrimidyl group is better than the aminopyridyl group as a substituent at position 2.

For data set [6], the target named is CYP1A2 (Homo sapiens (Human), UniProt P05177). Nature of the data set: in vitro. Type of data set: in vitro ADME. The protocol: as §2
The target of data set [7] is CYP2C19 (Homo sapiens (Human), UniProt P33261). Nature of the data set: CYP inhibitory activity. Type of data set: in vitro ADME. Conditions: read-out: CYP % activity at 10 μM concentration 2C19. As to the method:
as §2

The target in data set [8] is CYP2C9 (Homo sapiens (Human), UniProt P11712). Nature of the data set: CYP inhibitory activity. Type of data set: in vitro ADME. Conditions: read-out: CYP % activity at 10 μM concentration 2C9. As to the method: as §2
Data set [9] has as its target CYP2D6 (Homo sapiens (Human), UniProt P10635). Kind of data set: CYP inhibitory activity. Type of data set: in vitro ADME. Conditions: read-out: CYP % activity at 10 μM concentration 2D6. The protocol: as §2
Data set [10] has as its target CYP3A4 (Homo sapiens (Human), UniProt P08684). Kind of data set: CYP inhibitory activity. Type of data set: in vitro ADME. As to conditions: read-out: CYP % activity at 10 μM concentration 3A4. The protocol: as §2
In data set [11] the test system is Pol II CTD (Ser2) phosphorylation. Kind of data set: Western blot, Pol II CTD Ser2 phosphorylation. Type of data set: cell-based. Conditions: SK-Br3 and HCC1954 cell lines, 40 and 200 nM, 2 hours. For orientation: Immunoblotting shows a protein as a band on a membrane.
The test system of data set [12] is cyclinK. Nature of the data set: Western blot, cyclinK degradation. Type of data set: cell-based. Conditions: SK-Br3 and HCC1954 cell lines, 40 and 200 nM, 2 hours.
For data set [13], the system named is IRS1 and WNT1. Nature of the data set: Western blot, CDK12 downstream gene expression. Type of data set: cell-based. As to conditions: SK-Br3 and HCC1954 cell lines, 40 and 200 nM, 24 hours.

Sequence of CYP1A2 (P05177 whole entry): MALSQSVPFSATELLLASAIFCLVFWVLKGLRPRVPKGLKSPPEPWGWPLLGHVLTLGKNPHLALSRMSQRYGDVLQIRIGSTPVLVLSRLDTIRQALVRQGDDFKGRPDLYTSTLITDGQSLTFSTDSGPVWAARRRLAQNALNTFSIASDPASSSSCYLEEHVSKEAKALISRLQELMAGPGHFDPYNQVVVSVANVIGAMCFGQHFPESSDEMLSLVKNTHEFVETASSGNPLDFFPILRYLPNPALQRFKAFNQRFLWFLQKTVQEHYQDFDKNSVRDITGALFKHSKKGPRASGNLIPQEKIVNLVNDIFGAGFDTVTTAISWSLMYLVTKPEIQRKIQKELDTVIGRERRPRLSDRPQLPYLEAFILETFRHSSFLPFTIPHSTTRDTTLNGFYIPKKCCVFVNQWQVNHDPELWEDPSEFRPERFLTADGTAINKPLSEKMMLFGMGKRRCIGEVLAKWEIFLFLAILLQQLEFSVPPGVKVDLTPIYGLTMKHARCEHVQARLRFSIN
Sequence of CYP2C9 (P11712 whole entry): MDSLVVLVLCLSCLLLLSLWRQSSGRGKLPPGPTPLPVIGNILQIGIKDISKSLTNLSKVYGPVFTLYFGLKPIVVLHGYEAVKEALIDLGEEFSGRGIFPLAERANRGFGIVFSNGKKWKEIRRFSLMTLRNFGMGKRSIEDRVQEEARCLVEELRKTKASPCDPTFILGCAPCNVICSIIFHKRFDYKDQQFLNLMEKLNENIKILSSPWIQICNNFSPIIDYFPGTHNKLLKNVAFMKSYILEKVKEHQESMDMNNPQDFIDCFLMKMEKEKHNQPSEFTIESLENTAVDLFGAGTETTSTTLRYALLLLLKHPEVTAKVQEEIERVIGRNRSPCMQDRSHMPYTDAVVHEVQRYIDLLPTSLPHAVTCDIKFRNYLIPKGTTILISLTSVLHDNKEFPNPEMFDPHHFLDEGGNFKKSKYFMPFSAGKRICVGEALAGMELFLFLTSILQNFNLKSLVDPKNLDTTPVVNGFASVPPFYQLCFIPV
Sequence of CYP2D6 (P10635 whole entry): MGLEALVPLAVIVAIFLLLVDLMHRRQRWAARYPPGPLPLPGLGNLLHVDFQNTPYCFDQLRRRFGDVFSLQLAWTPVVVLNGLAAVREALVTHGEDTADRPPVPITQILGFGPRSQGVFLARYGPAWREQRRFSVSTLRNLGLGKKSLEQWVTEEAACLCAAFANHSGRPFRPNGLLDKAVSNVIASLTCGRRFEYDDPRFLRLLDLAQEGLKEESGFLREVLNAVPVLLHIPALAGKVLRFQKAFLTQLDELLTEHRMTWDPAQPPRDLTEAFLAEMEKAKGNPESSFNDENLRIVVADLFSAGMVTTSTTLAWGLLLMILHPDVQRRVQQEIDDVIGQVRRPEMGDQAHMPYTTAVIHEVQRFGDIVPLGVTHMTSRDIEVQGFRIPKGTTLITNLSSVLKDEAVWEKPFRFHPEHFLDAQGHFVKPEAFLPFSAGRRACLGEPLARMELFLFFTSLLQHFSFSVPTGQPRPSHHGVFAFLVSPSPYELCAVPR
Sequence of CYP3A4 (P08684 whole entry): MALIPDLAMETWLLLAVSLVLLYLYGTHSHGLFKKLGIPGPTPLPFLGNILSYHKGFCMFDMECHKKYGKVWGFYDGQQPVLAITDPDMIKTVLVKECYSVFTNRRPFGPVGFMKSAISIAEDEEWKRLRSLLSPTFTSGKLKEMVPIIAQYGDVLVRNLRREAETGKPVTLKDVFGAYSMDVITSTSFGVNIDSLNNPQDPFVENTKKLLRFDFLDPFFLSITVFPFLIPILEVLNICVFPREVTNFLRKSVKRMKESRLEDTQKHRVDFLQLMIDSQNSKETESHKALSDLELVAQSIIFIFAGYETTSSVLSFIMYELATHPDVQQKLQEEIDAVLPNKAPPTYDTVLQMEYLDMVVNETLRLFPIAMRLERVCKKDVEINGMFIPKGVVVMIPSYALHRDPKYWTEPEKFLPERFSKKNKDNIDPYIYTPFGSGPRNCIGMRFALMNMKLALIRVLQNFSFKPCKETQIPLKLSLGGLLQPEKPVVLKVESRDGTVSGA
Sequence of CDK12/CyclinK (Q9NYV4 whole entry): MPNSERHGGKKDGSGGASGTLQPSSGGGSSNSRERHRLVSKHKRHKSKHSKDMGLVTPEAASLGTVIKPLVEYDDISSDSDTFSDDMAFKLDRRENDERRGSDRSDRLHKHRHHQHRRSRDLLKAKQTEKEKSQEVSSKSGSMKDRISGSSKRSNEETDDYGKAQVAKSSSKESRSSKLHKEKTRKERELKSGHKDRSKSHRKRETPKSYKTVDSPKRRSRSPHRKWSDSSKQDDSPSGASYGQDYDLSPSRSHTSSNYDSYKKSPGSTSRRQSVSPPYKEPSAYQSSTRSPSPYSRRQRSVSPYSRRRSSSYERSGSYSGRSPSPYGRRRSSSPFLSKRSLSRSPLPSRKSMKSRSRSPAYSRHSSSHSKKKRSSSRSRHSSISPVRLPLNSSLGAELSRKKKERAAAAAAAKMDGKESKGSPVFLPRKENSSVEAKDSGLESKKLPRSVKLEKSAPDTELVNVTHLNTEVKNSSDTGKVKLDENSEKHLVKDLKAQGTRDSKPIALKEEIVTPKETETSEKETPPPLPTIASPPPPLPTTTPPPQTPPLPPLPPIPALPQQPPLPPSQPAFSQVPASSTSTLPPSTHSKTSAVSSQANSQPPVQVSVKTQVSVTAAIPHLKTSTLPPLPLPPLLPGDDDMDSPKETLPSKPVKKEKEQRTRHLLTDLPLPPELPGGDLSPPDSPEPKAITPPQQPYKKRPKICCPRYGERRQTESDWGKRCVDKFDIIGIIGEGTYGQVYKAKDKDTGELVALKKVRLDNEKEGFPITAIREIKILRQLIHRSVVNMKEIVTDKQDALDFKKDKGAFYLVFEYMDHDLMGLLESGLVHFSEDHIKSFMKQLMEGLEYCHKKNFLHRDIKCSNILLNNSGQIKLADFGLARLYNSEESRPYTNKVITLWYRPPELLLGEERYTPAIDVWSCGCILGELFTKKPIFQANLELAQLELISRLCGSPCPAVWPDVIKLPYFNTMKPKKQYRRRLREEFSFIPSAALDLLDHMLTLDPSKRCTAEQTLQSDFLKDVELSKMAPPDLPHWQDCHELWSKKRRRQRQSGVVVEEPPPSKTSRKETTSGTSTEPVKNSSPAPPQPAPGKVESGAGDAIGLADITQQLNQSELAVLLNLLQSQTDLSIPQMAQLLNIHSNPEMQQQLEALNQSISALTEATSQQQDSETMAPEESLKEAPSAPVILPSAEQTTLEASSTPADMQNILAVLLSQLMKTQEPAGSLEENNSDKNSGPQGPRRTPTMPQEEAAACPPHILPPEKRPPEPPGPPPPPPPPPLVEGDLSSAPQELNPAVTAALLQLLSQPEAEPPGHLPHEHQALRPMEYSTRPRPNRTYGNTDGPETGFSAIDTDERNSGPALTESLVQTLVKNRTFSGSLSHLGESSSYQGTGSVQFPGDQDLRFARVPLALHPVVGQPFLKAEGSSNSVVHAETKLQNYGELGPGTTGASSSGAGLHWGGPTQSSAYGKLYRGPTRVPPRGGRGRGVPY
Sequence of CDK12/CyclinK (O75909 whole entry partner): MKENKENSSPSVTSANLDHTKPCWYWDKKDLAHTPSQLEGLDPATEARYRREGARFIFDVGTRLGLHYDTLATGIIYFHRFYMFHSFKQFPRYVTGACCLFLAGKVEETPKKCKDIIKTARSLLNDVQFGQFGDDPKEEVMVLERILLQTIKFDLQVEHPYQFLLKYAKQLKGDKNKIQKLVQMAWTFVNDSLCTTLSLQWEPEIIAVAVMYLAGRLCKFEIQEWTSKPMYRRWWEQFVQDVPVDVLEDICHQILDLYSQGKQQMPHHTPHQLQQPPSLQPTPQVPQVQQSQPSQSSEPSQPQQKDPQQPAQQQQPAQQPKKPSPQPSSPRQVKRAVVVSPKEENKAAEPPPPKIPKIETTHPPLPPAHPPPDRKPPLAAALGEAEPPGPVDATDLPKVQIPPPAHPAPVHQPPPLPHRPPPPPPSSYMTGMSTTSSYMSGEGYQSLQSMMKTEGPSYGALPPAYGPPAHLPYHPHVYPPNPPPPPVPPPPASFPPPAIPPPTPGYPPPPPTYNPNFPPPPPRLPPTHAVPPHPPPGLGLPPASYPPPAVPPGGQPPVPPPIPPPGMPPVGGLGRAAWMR
Sequence of CYP2C19 (P33261 whole entry): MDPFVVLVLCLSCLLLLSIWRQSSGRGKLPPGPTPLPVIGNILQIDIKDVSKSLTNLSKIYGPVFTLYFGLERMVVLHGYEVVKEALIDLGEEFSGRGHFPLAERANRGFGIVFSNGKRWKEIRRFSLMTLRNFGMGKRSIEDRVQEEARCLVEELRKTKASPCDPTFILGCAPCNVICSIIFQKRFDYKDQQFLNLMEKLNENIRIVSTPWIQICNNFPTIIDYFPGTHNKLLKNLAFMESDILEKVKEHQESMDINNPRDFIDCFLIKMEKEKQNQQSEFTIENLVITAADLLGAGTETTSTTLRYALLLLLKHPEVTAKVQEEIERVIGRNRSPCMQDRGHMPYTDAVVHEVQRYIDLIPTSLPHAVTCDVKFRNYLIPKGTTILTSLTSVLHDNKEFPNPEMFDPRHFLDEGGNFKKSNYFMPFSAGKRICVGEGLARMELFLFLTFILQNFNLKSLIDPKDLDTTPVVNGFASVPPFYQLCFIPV

As for `CCc1cnn2c(NCc3ccc[n+]([O-])c3)cc(N3CCCC[C@H]3CCO)nc12` [Dinaciclib, reference compound], the GI50 in data set [1] (read-out: HCC1954 GI50) and in data set [2] (read-out: SK-Br3 GI50) was 0.012 µM in each case. The mouse body weight result in [3] is reported as “toxicity with a decrease in body weight in mice”.

In [4], `CCn1cnc2c(NCc3ccc(-c4ccnc(C)c4)nc3)nc(-c3cncnc3)nc21` [Example 51, 9-ethyl-N-((2′-methyl-[2,4′-bipyridin]-5-yl)methyl)-2-(pyrimidin-5-yl)-9H-purin-6-amine] displayed an IC50 of 0.056 µM. In addition, the GI50 worked out at 0.156 µM in data set [1] (72 hours, read-out: HCC1954 (GI50/μM)) and 0.192 µM in data set [2] (72 hours, read-out: SK-Br3 (GI50/μM)). Moreover, the “Liver microsomal metabolic stability (% remaining amount) Dog” value in data set [5] stood at 79.5%. The “Liver microsomal metabolic stability (% remaining amount) Human” value in data set [5] is reported as 27.3%. Besides, the “Liver microsomal metabolic stability (% remaining amount) Mouse” value in data set [5] came to 34.0%. For the same molecule, the activity at 10 µM turned out to be 68.6% in [6]; 73.9% in data set [7]; 67.5% in data set [8]; 88.8% in data set [9]; 31.8% in [10].

`CCn1cnc2c(NCc3ccc(-c4ccccn4)nc3)nc(-c3cnc(N)nc3)nc21` [Example 54, N-([2,2′-bipyridin]-5-ylmethyl)-2-(2-aminopyrimidin-5-yl)-9-ethyl-9H-purin-6-amine]: the IC50 in data set [4] was determined as 0.077 µM. Moreover, the results for the “Pol II CTD (Ser2) phosphorylation” value in data set [11] and in data set [11] (listed as Compound 54) were “inhibited Pol II CTD (Ser2) phosphorylation” and “strong dose-dependent suppression of Pol II phosphorylation”, respectively. The cyclinK degradation entry in data set [12] was “induced cyclinK degradation”; in data set [12] (listed as Compound 54), “cyclinK levels were greatly suppressed in a dose-dependent manner”. In addition, the “expression of IRS1 and WNT1” value in data set [13] was “inhibited the expression of IRS1 and WNT1”; in data set [13] (listed as Compound 54), “strongly suppressed”. The “Liver microsomal metabolic stability (% remaining amount) Dog” value in data set [5] is 67.6%. Also, the “Liver microsomal metabolic stability (% remaining amount) Human” value in data set [5] is 100%. The “Liver microsomal metabolic stability (% remaining amount) Mouse” value in data set [5] is given as 85.0%. Moreover, the activity at 10 µM was 87.6% in [6]; 72.6% in [7]; 81.6% in data set [8]; 92.1% in [9]; 92.8% in data set [10].

One may read the IC50 as the concentration at which inhibition is half-maximal.
